# Test results reported in patent US20250213700A1, “COMPOUNDS, COMPOSITIONS, AND METHODS FOR CELL-SPECIFIC PHARMACOLOGY” (Duke University, priority 2022, published 2025).
# Where two headings read alike, the source gives them in different places.
# What was measured:
# [1] = system: endogenous GABAARs; test: all-optical assay of GABAAR antagonism in primary neuronal culture; type: cell-based, rat
# Procedure: (§1) Cultured neuronal assays: Preparation of hippocampal cultures: Mixed glial and neuronal cultures were prepared from the hippocampus of postnatal day 0 to 1 Sprague-Dawley rat pups. Separate pools of dissociated cells were transfected via electroporation (LONZA, V4SP-3096) with plasmid constructs, and depending on assay directives, either plated individually or mixed with a different pool of electroporated cells after a 10 min recovery period. Cells were cultured on coverslips (Deckglaser) pre-treated with high molecular weight poly-D-lysine (Sigma, P7405; 0.05 mg/mL) in 24-well plates and maintained in NbActiv4 (BrainBits, Nb4-500) at 37 C, 5% CO2. Media was changed by half at DIV3 or 4 and then weekly thereafter; experiments were performed between DIV16 to DIV18.
# Gabazine: Dissociated neurons were electroporated with constructs and cultured for 2 weeks. The assay was performed in the same BASE solution as described above, but with the addition of synaptic blockers CPP (NMDAR antagonist; Tocris) and NBQX (AMPAR antagonist; Abcam, ab120046) to isolate GABAR activity, and a small amount of GABA (GABAR agonist; Sigma) to ensure GABAR activity (=GABAR-BASE). […] Instead, a high dose of regular gabazine was used to completely silence any cells that may not have had realized full antagonism by the end of the assay. Imaging alignment, proof-reading and analysis were performed in a similar fashion to the AMPAR assay using MatLab.
# It was next focused on blocking the GABAAR, a ubiquitous transducer of synaptic inhibition. […] The structure-activity literature of gabazine, a selective GABAAR antagonist, was explored. The core gabazine pharmacophore includes of a 3-amino, 6-phenoxy-pyridazine ring, with GABA embedded in the 2-position (2 butyric acid). Based on historical, low-potency predecessors of gabazine, a longer GABA moiety (2 pentanoic acid), and methyl substituents (e.g., 5-CH3) were explored (FIG. 2F). For each variant, the 6-phenoxy moiety was modified to make a gabazinealkyne module, which was click-conjugated to DART.2. Several variants were made, including gabazine.1^DART.2 (2 butyric acid, 5-H), gabazine.5DART.2 (2 pentanoic acid, 5-H), and gabazine.7DART.2 (2 pentanoic acid, 5-CH3). An all-optical assay of endogenous GABAARs in primary neuronal culture was then developed. […] Excitatory synapses were blocked, such that opto-stimulation with ChR2 became the only source of neural excitation.
# [2] = system: GABAAR; test: cerebellar slice voltage-clamp, tonic GABAAR current in granule cells; type: cell-based, mouse
# Source text: (§2) (FIG. 4A) Validation of gabazine.1^DART.2 in cerebellar slice. Top: voltage-clamp schematic. Bottom: tonic GABAAR in granule cells expressing ^+HTP or ^ddHTP. […] Data are mean±SEM, cells normalized to baseline. (FIG. 4B) In vivo delivery of gabazine.1^DART.2 to cerebellar granule cells. Top right: schematic of experimental approach, GCaMP6f granule-cell activity obtained in the absence of sensory stimuli. Top left: example field of view, GCaMP6f signal averaged across trials. Bottom: example calcium traces (ΔF/F) in an awake ^+HTP mouse before (baseline) and after (1 μL of 1 μM gabazine.1^DART.2) infusion. (FIG. 4C) In vivo, 1 μL of 1 μM gabazine.1^DART.2 to ^+HTP mice. Color indicates ΔF/F, each row is one cell before (left) and after (right) gabazine.1^DART.2 infusion. […] (FIG. 4D) In vivo, 1 μL of 1 μM gabazine.1^DART.2 to ^ddHTP mice. Format as in panel C. […] (FIG. 4E) Validation of gabazine.7^DART.2 in VTA slice. Top: evoked-IPSC configuration. […] Data are mean±SEM, cells normalized to baseline. […] Data are mean±SEM, normalized to baseline speed of each animal.
# Next, the feasibility of using DART.2 for GABAAR antagonism in live mice was explored. […] Whether this sparsity results from low excitatory drive, or high inhibitory GABAAR tone, has been difficult to address with prior tools. For example, one may attempt to reduce inhibition onto granule cells by silencing local GABA-producing neurons [golgi cells]. However, this would disinhibit local excitatory neurons [unipolar brush cells]. Thus the approach would inadvertently elevate excitatory drive onto granule cells, concomitant with the desired goal of reducing their inhibition, confounding interpretation. […] AAV DIO ^+HTPGPI or AAV DIO ^ddHTPGPI were expressed along with GCaMPxx in xxx-Cre mice; 2p. […] Next, in vivo experiments, using two-photon imaging of granule cells were performed.
# [3] = system: endogenous GABAAR; test: all-optical assay of GABAAR positive allosteric modulation in primary neuronal culture; type: cell-based, rat
# Procedure: as §1
# Diazepam/Flumazenil: Dissociated neurons were electroporated with constructs and cultured for 2 weeks. The assay was performed in a modified GABAR-BASE, with an increased KCl concentration to enhance neuronal excitability and a lowered GABA level for a baseline. Again, a DRUG plate and three DoseGroups were used as described above for dosing, but no final WASH. […] Imaging alignment, proof-reading and analysis were performed in a similar fashion to the GABAR assay using MatLab.
# Next it was sought to extend DART to allosteric modulators. The allosteric binding site of the GABAAR, known to bind several drugs, with effects ranging from negative to positive allosteric modulation was first analyzed. Diazepam represents the prototypic PAM at this site, and is the most clinically significant of the class. Thus, a diazepam analog was synthesized with a short alkyne attached to the amide of the diazepam core; an attachment site known to tolerate substituents and thought from structural inspection of the GABAAR-bound diazepam pose to allow linker access to free solution. Click chemistry was used to assemble the full-length diazepam.1DART.2 and leveraged an all-optical assay of endogenous GABAARs in primary neuronal culture, with ChR2 and GCaMP6s in the same cell.
# [4] = system: GABAAR; test: whole-mount retina, GABAAR-mediated evoked IPSC in retinal ganglion cells; type: cell-based, mouse; details: 300 nM, 15 min
# Procedure: (FIG. 6A) Viral strategy (top panel). […] Experimental overview (second panel from the top to bottom panel). Top: whole retina; synaptic current is evoked (stim) and recorded (voltage-clamp of dTomato+ RGC), with ionic and pharmaceutical conditions chosen to isolate the AMPAR or GABAAR. A 10 min baseline is followed by 15 min application of 300 nM Rx^DART.2+30 nM Alexa^647.1DART.2. […] (FIG. 6B) CMPDA.2^DART.2 (left). Electropositive spacer (PDB 3RNN). […] AMPAR structural model (middle) (composite of PDB 5WEO, 3RNN, and 1FTL). Cylinder depicts cell membrane. […] YM90K.1^DART.2 (right). Structural model (PDB 1FTL). […] (FIG. 6C) diazepam.1^DART.2 (left). Structural model (PDB 6HUP). […] GABAAR (middle) structural model (composite of PDB 6HUP and 6HUK). […] Structural model (PDB 6HUK).
# Preparation of Retina: Mice were intravitreal injected AAV10 HaloTag™-dTomato to eyes. After 8-12 weeks, the mice killed by cervical dislocation. Both eyes were removed and dissected under a stereo-microscope. Retinas were isolated from the eyecups and placed in oxygenated (95% O2/5% CO2) cold-Ames medium (Sigma-Aldrich), supplemented with 21 mM NaHCO3. After the vitreous body was removed, a retina was cut into 3 pieces, leaving each retina piece attached to a filter paper with 2 mm hole by retina ganglion-cell-side-down. The pieces of retina were stored in bubbled Ames solution at room temperature, then transferred to recording chamber with retina ganglion-cell-side-up for recording.
# Whole-cell patch-clamp recording: The brain slices or retinas were perfused with bubbled aCSF at 29-30° C. with a 2 ml/min flow rate. Recordings were made by whole cell patch recording techniques using a Multiclamp 700B amplifier (Molecular Devices, Axon Instruments Inc., Union City, CA). The signals were filtered at 10 KHz and acquired using Digitate 1440A and pClamp 10.7 (Molecular Devices). The recording pipettes (4 MΩ-6 MΩ) were filled with internal solutions. For GABAA receptor-mediated evoked inhibitory postsynaptic currents ([…]) recording, the pipettes filled with Cesium Chloride-based internal solution (in mM) 135 CsCl, 2 MgCl2, 0.5 EGTA, 10 HEPES, 4 Mg-ATP, 0.5 Na-GTP, 10 Na2-phosphocreatine, and QX314 (lidocaine N-ethyl bromide), pH adjusted to 7.3 with CsOH (290 mosm). For AMPA-receptor mediated evoked excitatory postsynaptic currents (eEPSCs) recording, the pipette solution contained (in mM) 130 CsMeS, 1 MgCl2, 0.5 EGTA, 10 HEPES, 4 Mg-ATP, 0.5 Na-GTP, 10 Na2-phosphocreatine, and 4 QX314, pH adjusted to 7.3 with CsOH (290 mosm). For experiment of brain slices and retinas, the eIPSCs or eEPSCs were elicited by electrical stimuli at 0.067 Hz in 0.3-ms duration and 150-300-ρA (60-70% maximum responses) stimulation intensity at a holding potential of −70 mV. The stimulating electrode was placed within 60-100 μm from the recording neuron under voltage-clamp mode. GABA-receptor mediated eIPSCs were isolated in the presence of DNQX ([…] AMPAR antagonist) and AP-V ([…] antagonist) in the bath solution. For AMPA-receptor mediated eEPSCs, added picrotoxin ([…], GABAAR antagonist) and AP-V ([…]) to the bath solution.
# [5] = system: endogenous AMPARs; test: all-optical cultured-neuron assay of AMPAR-dependent synaptic transmission; type: cell-based, rat; details: DW=Rx50/HTL50; ddHTP vs +HTP cells, 15 min
# Procedure: as §1
# [6] = system: cerebellar granule cells; test: in vivo two-photon GCaMP imaging of cerebellar granule cells; set-up: species or system mouse; details: local infusion, 1 μL of 1 μM
# Source text: as §2
# Next, the feasibility of using DART.2 for GABAAR antagonism in live mice was explored. […] Whether this sparsity results from low excitatory drive, or high inhibitory GABAAR tone, has been difficult to address with prior tools. […]
smiles,measurement,setting,value
"COc1ccc(-c2ccc(=N)n(CCCC(=O)O)n2)cc1 [gabazine, reference compound]",effect on +HTP vs ddHTP cells,[1]; traditional (non-DART) version,equally affected
same,GABAAR current after subsequent application,[2]; traditional gabazine,blocks all GABAAR current
"COc1cc(CCCCl)ccc1CCOCCNC(=O)c1ccc(CNC(=O)CCOCCOCCOCCOCCOCCOCCOCCOCCOCCOCCOCCOCCOCCOCCOCCOCCOCCOCCOCCOCCOCCOCCOCCOCCOCCOCCOCCOCCOCCOCCOCCOCCOCCOCCOCCOCCn2cc(COCCOCCOCCOCCOCCOCCN3C(=O)CN=C(c4ccccc4)c4cc(Cl)ccc43)nn2)cc1 [diazepam.1DART.2, 1-(4-(19-(7-chloro-2-oxo-5-phenyl-2,3-dihydro-1H-benzo[e][1,4]diazepin-1-yl)-2,5,8, 11, 14, 17-hexaoxanonadecyl)-1H-1,2,3-triazol-1-yl)-N-(4-((2-(4-(3-chloropropyl)-2-methoxyphenethoxy)ethyl)carbamoyl)benzyl)-3,6,9,12, 15, 18,21,24,27, 30, 33, 36, 39, 42, 45, 48, 51, 54, 57, 60, 63, 66, 69, 72, 75, 78, 81, 84, 87, 90, 93, 96, 99, 102, 105, 108-hexatriacontaoxaundecahectan-111-amide]",DW (t=15 m),[3]; Rx50/HTL50,~750
same,EC50,"[3]; read-out: HTL50 (t=15 m), +HTP neurons, 15 min",0.04 µM
same,EC50,"[3]; read-out: Rx50, ddHTP neurons, 5 µM GABA",30 µM
same,"GABAAR evoked IPSC integral (total charge transfer) boost, +HTP cells",[4],2 fold
same,"GABAAR evoked IPSC, ddHTP cells",[4],no effect on ddHTP RGCs
same,"GABAAR-mediated IPSC potentiation, +HTP RGCs",[4],significantly potentiated IPSCs
same,"GABAAR evoked IPSC, ddHTP cells",[4]; listed as diazepam.1^DART.2,not ^ddHTP cells
"O=C(CCCn1c(=O)c(=O)[nH]c2cc([N+](=O)[O-])c(-n3ccnc3)cc21)NCCOCCOCCOCCOCCOCCOCc1cn(CCOCCOCCOCCOCCOCCOCCOCCOCCOCCOCCOCCOCCOCCOCCOCCOCCOCCOCCOCCOCCOCCOCCOCCOCCOCCOCCOCCOCCOCCOCCOCCOCCOCCOCCOCCOCCC(=O)NCCOCCOCCCCCCCl)nn1 [YM90K.1DART.1, 1-(4-(24-(7-(1H-imidazol-1-yl)-6-nitro-2,3-dioxo-3,4-dihydroquinoxalin-1 (2H)-yl)-21-oxo-2,5,8, 11, 14, 17-hexaoxa-20-azatetracosyl)-1H-1,2,3-triazol-1-yl)-N-(2-(2-((6-chlorohexyl)oxy)ethoxy)ethyl)-3,6,9, 12, 15, 18, 21, 24, 27, 30, 33, 36, 39, 42, 45, 48, 51, 54, 57, 60, 63, 66, 69, 72, 75, 78, 81, 84, 87, 90, 93, 96, 99, 102, 105, 108-hexatriacontaoxaundecahectan-111-amide]",DW (t=15 m),[5],30
COc1cc(CCCCl)ccc1CCOCCNC(=O)c1ccc(CNC(=O)CCOCCOCCOCCOCCOCCOCCOCCOCCOCCOCCOCCOCCOCCOCCOCCOCCOCCOCCOCCOCCOCCOCCOCCOCCOCCOCCOCCOCCOCCOCCOCCOCCOCCOCCOCCOCCn2cc(COCCOCCOCCOCCOCCOCCOCCCCCCOc3ccc(-c4ccc(=N)n(CCCC(=O)O)n4)cc3)nn2)cc1 [gabazine.1DART.2],DW (t=15 m),"[1]; ddHTP vs +HTP cells, 15 min, 15 uM GABA",500
same,"tonic GABAAR current, +HTP granule cells",[2]; 100 nM,antagonizes the GABAAR in ^+HTP
same,HTL50 (half-maximal tethering concentration at 15 min),"[2]; +HTP cells, tonic GABAAR current, read-out: HTL50 (t=15 m)",~50 nM
same,IC50,"[2]; read-out: Rx50, ddHTP cells, tonic GABAAR current",~1 µM
same,"GCaMP signals, ddHTP mice",[6],no impact on GCaMP signals
same,"granule cell activity, +HTP mice",[6],pronounced increase in +HTP granule cell activity
same,"GABAAR evoked IPSC block, +HTP cells",[4],blocked the GABAAR-mediated IPSC
same,"GABAAR evoked IPSC, ddHTP cells",[4],not on ^ddHTP cells
same,"GABAAR evoked IPSC block, +HTP cells",[4]; listed as gabazine.1^DART.2,blocked on ^+HTP cells
